Results taken from patent publication US11046686B2, “Thiadiazole IRAK4 compounds” (Gilead Sciences, Inc., priority 2018, dated 2021).
Read-outs that look alike come from different tables or passages of the source.

Tests used:
TNFα = experiment: IRAK4 Monocyte TNFα Cell Based Assay; design: species or system human; details: human monocytes, second part of Table 2, compounds 33-343, unit inferred, read-out: EC50 MONO TNF HTRF
Method in brief: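 TNFα release quantified by HTRF (cryptate/XL665 antibody pair, overnight at RT) after 1 h compound pre-incubation (0.1% DMSO) and 4 h LPS challenge at 50 pg/ml, 37 °C, 5,000 monocytes per well. Signal ratio normalised between unstimulated (0%) and stimulated (100%) controls.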

IRAK4 enzyme = IRAK4 enzyme (Homo sapiens (Human), UniProt Q9NWZ3); experiment: IRAK4 Biochemical Assay (TR-FRET, STK1 KinEASE)
Chain of IRAK4 enzyme (Q9NWZ3 whole entry): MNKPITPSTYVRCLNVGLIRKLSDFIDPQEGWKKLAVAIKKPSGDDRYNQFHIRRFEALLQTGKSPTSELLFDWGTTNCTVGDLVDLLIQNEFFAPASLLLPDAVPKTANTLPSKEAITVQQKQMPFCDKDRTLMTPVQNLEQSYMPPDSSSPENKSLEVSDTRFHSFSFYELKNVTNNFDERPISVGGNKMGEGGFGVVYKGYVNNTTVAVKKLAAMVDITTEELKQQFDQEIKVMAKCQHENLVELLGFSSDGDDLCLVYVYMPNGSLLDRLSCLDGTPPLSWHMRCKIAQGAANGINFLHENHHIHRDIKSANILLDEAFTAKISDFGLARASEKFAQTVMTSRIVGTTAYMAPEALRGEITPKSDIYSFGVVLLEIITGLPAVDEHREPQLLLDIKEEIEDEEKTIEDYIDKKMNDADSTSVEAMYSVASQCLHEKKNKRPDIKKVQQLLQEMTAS
Method in brief: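 TR-FRET endpoint (KinEASE STK1): phosphopeptide detected with cryptate antibody and tracer after EDTA quench, ratio 665/615 nm, normalized to no-inhibitor wells as % inhibition. Reaction: 0.75 nM IRAK4, […] peptide, 500 μM ATP, pH 7.0 HEPES, 120 min room temperature, after 15 min compound preincubation with enzyme.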

[1] = second part of Table 2, compounds 33-343, unit inferred, read-out: IC50 IRAK4-HTBS

SMILES: CC(=O)N[C@@H]1CCN(C(=O)c2cnc(-c3cnc(-c4ccc5cc(C#N)cnn45)cc3NC(C)C)s2)C1 [Example 40, (R)-N-(1-(2-(6-(3-cyanopyrrolo[1,2-b]pyridazin-7-yl)-4-(isopropylamino)pyridin-3-yl)thiazole-5-carbonyl)pyrrolidin-3-yl)acetamide]
- EC50 (TNFα; Homo sapiens, Monocyte): 87.6 nM
- IC50 (IRAK4 enzyme): 3.09 nM

SMILES: CC(=O)NC[C@@H]1CCCN1C(=O)c1nnc(-c2cnc(-c3ccc4cc(C#N)cnn34)cc2NC(C)C)s1 [Example 41, (S)-N-((1-(5-(6-(3-cyanopyrrolo[1,2-b]pyridazin-7-yl)-4-(isopropylamino)pyridin-3-yl)-1,3,4-thiadiazole-2-carbonyl)pyrrolidin-2-yl)methyl)acetamide]
- EC50 (TNFα; Homo sapiens, Monocyte): 11.6 nM
- IC50 (IRAK4 enzyme): 1.38 nM

SMILES: COC(=O)N[C@@H]1CCN(C(=O)c2nnc(-c3cnc(-c4ccc5cc(C#N)cnn45)cc3NC(C)C)s2)C1 [Example 44, methyl (R)-(1-(5-(6-(3-cyanopyrrolo[1,2-b]pyridazin-7-yl)-4-(isopropylamino)pyridin-3-yl)-1,3,4-thiadiazole-2-carbonyl)pyrrolidin-3-yl)carbamate]
- EC50 (TNFα; Homo sapiens, Monocyte): 27.4 nM
- IC50 (IRAK4 enzyme): 0.53 nM

SMILES: CC(C)Nc1cc(-c2ccc3cc(C#N)cnn23)ncc1-c1nnc(C(=O)N2CC[C@H](NC(=O)C3CC3)C2)s1 [Example 46, (S)-N-(1-(5-(6-(3-cyanopyrrolo[1,2-b]pyridazin-7-yl)-4-(isopropylamino)pyridin-3-yl)-1,3,4-thiadiazole-2-carbonyl)pyrrolidin-3-yl)cyclopropanecarboxamide]
- EC50 (TNFα; Homo sapiens, Monocyte): 16.7 nM
- IC50 (IRAK4 enzyme): 0.67 nM

SMILES: CC(=O)N[C@H]1CCCN(C(=O)c2nnc(-c3cnc(-c4ccc5cc(C#N)cnn45)cc3NC(C)C)s2)C1 [Example 48, (S)-N-(1-(5-(6-(3-cyanopyrrolo[1,2-b]pyridazin-7-yl)-4-(isopropylamino)pyridin-3-yl)-1,3,4-thiadiazole-2-carbonyl)piperidin-3-yl)acetamide]
- EC50 (TNFα; Homo sapiens, Monocyte): 37.5 nM
- IC50 (IRAK4 enzyme): 1.91 nM

SMILES: CC(=O)N[C@@H]1CCCN(C(=O)c2nnc(-c3cnc(-c4ccc5cc(C#N)cnn45)cc3NC(C)C)s2)C1 [Example 49, (R)-N-(1-(5-(6-(3-cyanopyrrolo[1,2-b]pyridazin-7-yl)-4-(isopropylamino)pyridin-3-yl)-1,3,4-thiadiazole-2-carbonyl)piperidin-3-yl)acetamide]
- EC50 (TNFα; Homo sapiens, Monocyte): 34.3 nM
- IC50 (IRAK4 enzyme): 1.75 nM

SMILES: CC(=O)N[C@H]1CC[C@H](c2nnc(-c3cnc(-c4ccc5cnc(N[C@@H]6CCCC[C@@H]6N)nn45)cc3NC(C)C)s2)CC1 [Example 50, N-((1r,4r)-4-(5-(6-(2-(((1R,2S)-2-aminocyclohexyl)amino)pyrrolo[2,1-f][1,2,4]triazin-7-yl)-4-(isopropylamino)pyridin-3-yl)-1,3,4-thiadiazol-2-yl)cyclohexyl)acetamide]
- EC50 (TNFα; Homo sapiens, Monocyte): 3.6 nM
- IC50 (IRAK4 enzyme): 0.92 nM

SMILES: CC(=O)N[C@@H]1[C@@H]2CC[C@H]1CN(c1nnc(-c3cnc(-c4ccc5cnc(N[C@@H]6CCCC[C@@H]6N)nn45)cc3N[C@H](C)C#N)s1)C2 [Example 61, N-((1R,5S,8S)-3-(5-(6-(2-(((1R,2S)-2-aminocyclohexyl)amino)pyrrolo[2,1-f][1,2,4]triazin-7-yl)-4-(((R)-1-cyanoethyl)amino)pyridin-3-yl)-1,3,4-thiadiazol-2-yl)-3-azabicyclo[3.2.1]octan-8-yl)acetamide]
- EC50 (TNFα; Homo sapiens, Monocyte): 5.3 nM
- IC50 (IRAK4 enzyme): 1.01 nM

SMILES: CC(=O)N[C@H]1CCN(c2nnc(-c3cnc(-c4ccc5cc(C#N)cnn45)cc3NC(C)C)s2)C[C@H]1O [Example 62, N-((3R,4S)-1-(5-(6-(3-cyanopyrrolo[1,2-b]pyridazin-7-yl)-4-(isopropylamino)pyridin-3-yl)-1,3,4-thiadiazol-2-yl)-3-hydroxypiperidin-4-yl)acetamide]
- EC50 (TNFα; Homo sapiens, Monocyte): 12.5 nM
- IC50 (IRAK4 enzyme): 0.38 nM

SMILES: CC(=O)N[C@@H]1CCN(c2nnc(-c3cnc(-c4ccc5cc(C#N)cnn45)cc3NC(C)C)s2)C[C@H]1O [Example 65, N-((3R,4R)-1-(5-(6-(3-cyanopyrrolo[1,2-b]pyridazin-7-yl)-4-(isopropylamino)pyridin-3-yl)-1,3,4-thiadiazol-2-yl)-3-hydroxypiperidin-4-yl)acetamide]
- EC50 (TNFα; Homo sapiens, Monocyte): 10.6 nM
- IC50 (IRAK4 enzyme): 0.3 nM

SMILES: CC(=O)NC12CCC(CC1)N(c1nnc(-c3cnc(-c4ccc5cc(C#N)cnn45)cc3NC(C)C)s1)C2 [Example 66, N-(2-(5-(6-(3-cyanopyrrolo[1,2-b]pyridazin-7-yl)-4-(isopropylamino)pyridin-3-yl)-1,3,4-thiadiazol-2-yl)-2-azabicyclo[2.2.2]octan-4-yl)acetamide]
- EC50 (TNFα; Homo sapiens, Monocyte): 13.6 nM
- IC50 (IRAK4 enzyme): 0.42 nM

SMILES: CC(=O)N1CC2(C1)CN(c1nnc(-c3cnc(-c4ccc5cc(C#N)cnn45)cc3NC(C)C)s1)C2 [Example 68, 7-(5-(5-(6-acetyl-2,6-diazaspiro[3.3]heptan-2-yl)-1,3,4-thiadiazol-2-yl)-4-(isopropylamino)pyridin-2-yl)pyrrolo[1,2-b]pyridazine-3-carbonitrile]
- EC50 (TNFα; Homo sapiens, Monocyte): 37.9 nM
- IC50 (IRAK4 enzyme): 0.45 nM

SMILES: CC(=O)NC1CCC2(CC1)CN(c1nnc(-c3cnc(-c4ccc5cc(C#N)cnn45)cc3NC(C)C)s1)C2 [Example 69, N-(2-(5-(6-(3-cyanopyrrolo[1,2-b]pyridazin-7-yl)-4-(isopropylamino)pyridin-3-yl)-1,3,4-thiadiazol-2-yl)-2-azaspiro[3.5]nonan-7-yl)acetamide]
- EC50 (TNFα; Homo sapiens, Monocyte): 11.8 nM
- IC50 (IRAK4 enzyme): 1.16 nM

SMILES: CC(=O)NC12CCC(c3nnc(-c4cnc(-c5ccc6cc(C#N)cnn56)cc4NC4COC4)s3)(CC1)CC2 [Example 70, N-(4-(5-(6-(3-cyanopyrrolo[1,2-b]pyridazin-7-yl)-4-(oxetan-3-ylamino)pyridin-3-yl)-1,3,4-thiadiazol-2-yl)bicyclo[2.2.2]octan-1-yl)acetamide]
- EC50 (TNFα; Homo sapiens, Monocyte): 8.8 nM
- IC50 (IRAK4 enzyme): 0.58 nM

SMILES: CC(=O)NC12CCC(c3nnc(-c4cnc(-c5ccc6cc(C#N)cnn56)cc4NC4CCOCC4)s3)(CC1)CC2 [Example 71, N-(4-(5-(6-(3-cyanopyrrolo[1,2-b]pyridazin-7-yl)-4-((tetrahydro-2H-pyran-4-yl)amino)pyridin-3-yl)-1,3,4-thiadiazol-2-yl)bicyclo[2.2.2]octan-1-yl)acetamide]
- EC50 (TNFα; Homo sapiens, Monocyte): 3.2 nM
- IC50 (IRAK4 enzyme): 0.58 nM

SMILES: CC(=O)N[C@H]1C[C@@H]2C[C@H]1CN2c1nnc(-c2cnc(-c3ccc4cc(C#N)cnn34)cc2NC(C)C)s1 [Example 74, N-((1S,4S,5S)-2-(5-(6-(3-cyanopyrrolo[1,2-b]pyridazin-7-yl)-4-(isopropylamino)pyridin-3-yl)-1,3,4-thiadiazol-2-yl)-2-azabicyclo[2.2.1]heptan-5-yl)acetamide]
- EC50 (TNFα; Homo sapiens, Monocyte): 11 nM
- IC50 (IRAK4 enzyme): 0.54 nM

SMILES: CC(=O)NC1CCC2(CC1)CN(c1nnc(-c3cnc(-c4ccc5cc(C#N)cnn45)cc3NC3CCOCC3)s1)C2 [Example 79, N-(2-(5-(6-(3-cyanopyrrolo[1,2-b]pyridazin-7-yl)-4-((tetrahydro-2H-pyran-4-yl)amino)pyridin-3-yl)-1,3,4-thiadiazol-2-yl)-2-azaspiro[3.5]nonan-7-yl)acetamide]
- EC50 (TNFα; Homo sapiens, Monocyte): 2.6 nM
- IC50 (IRAK4 enzyme): 0.48 nM

SMILES: CC(=O)N[C@@H]1CC[C@@H](c2nnc(-c3cnc(-c4ccc5cc(C#N)cnn45)cc3NC(C)C)s2)OC1 [Example 81, N-((3R,6S)-6-(5-(6-(3-cyanopyrrolo[1,2-b]pyridazin-7-yl)-4-(isopropylamino)pyridin-3-yl)-1,3,4-thiadiazol-2-yl)tetrahydro-2H-pyran-3-yl)acetamide]
- EC50 (TNFα; Homo sapiens, Monocyte): 21.4 nM
- IC50 (IRAK4 enzyme): 0.66 nM

SMILES: CC(=O)NC12CCC(c3nnc(-c4cnc(-c5ccc6cc(C#N)cnn56)cc4NC(C)C)s3)(CC1)OC2 [Example 83, N-(1-(5-(6-(3-cyanopyrrolo[1,2-b]pyridazin-7-yl)-4-(isopropylamino)pyridin-3-yl)-1,3,4-thiadiazol-2-yl)-2-oxabicyclo[2.2.2]octan-4-yl)acetamide]
- EC50 (TNFα; Homo sapiens, Monocyte): 52.5 nM
- IC50 (IRAK4 enzyme): 1.37 nM

SMILES: CC(C)Nc1cc(-c2ccc3cc(C#N)cnn23)ncc1-c1nnc(C23CCC(O)(CC2)CC3)s1 [Example 89, 7-(5-(5-(4-hydroxybicyclo[2.2.2]octan-1-yl)-1,3,4-thiadiazol-2-yl)-4-(isopropylamino)pyridin-2-yl)pyrrolo[1,2-b]pyridazine-3-carbonitrile]
- EC50 (TNFα; Homo sapiens, Monocyte): 11.3 nM
- IC50 (IRAK4 enzyme): 1.01 nM

SMILES: CC(C)Nc1cc(-c2ccc3cc(C#N)cnn23)ncc1-c1nnc(N2C[C@H]3CC[C@@H](C2)[C@@H]3NC(=O)[C@H](C)O)s1 [Example 91, (S)-N-((1R,5S,8s)-3-(5-(6-(3-cyanopyrrolo[1,2-b]pyridazin-7-yl)-4-(isopropylamino)pyridin-3-yl)-1,3,4-thiadiazol-2-yl)-3-azabicyclo[3.2.1]octan-8-yl)-2-hydroxypropanamide]
- EC50 (TNFα): 3.9 nM
- IC50 (IRAK4 enzyme; [1]): 0.93 nM

SMILES: CC(C)Nc1cc(-c2ccc3cc(C#N)cnn23)ncc1-c1nnc(N2C[C@H]3CC[C@@H](C2)[C@@H]3NC(=O)C2CN(C)C2)s1 [Example 102, N-((1R,5S,8s)-3-(5-(6-(3-cyanopyrrolo[1,2-b]pyridazin-7-yl)-4-(isopropylamino)pyridin-3-yl)-1,3,4-thiadiazol-2-yl)-3-azabicyclo[3.2.1]octan-8-yl)-1-methylazetidine-3-carboxamide]
- EC50 (TNFα): 31.4 nM
- IC50 (IRAK4 enzyme; [1]): 1.22 nM

SMILES: CC(=O)N[C@H]1CC[C@@H](c2nnc(-c3cnc(-c4ccc5cc(C#N)cnn45)cc3NC(C)C)s2)CC1 [Example 127, N-((1s,4s)-4-(5-(6-(3-cyanopyrrolo[1,2-b]pyridazin-7-yl)-4-(isopropylamino)pyridin-3-yl)-1,3,4-thiadiazol-2-yl)cyclohexyl)acetamide]
- EC50 (TNFα): 9.9 nM
- IC50 (IRAK4 enzyme; [1]): 0.64 nM
